Measured values: PubChem BioAssay (NCI)
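Briefly, cells in 96-well plates were exposed to five compound concentrations for 48 h, and endpoints were estimated by linear interpolation. TGI is the concentration that stops growth completely.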

Legend:
Experiment in all cases: NCI tumour cell line growth inhibition, 48 h
[1] = test system: NCI-H522 lung
[2] = test system: M14 melanoma
[3] = test system: SK-MEL-28 melanoma
[4] = test system: RXF-631 renal
[5] = test system: LOX IMVI melanoma
[6] = test system: 786-0 renal
[7] = test system: M19-MEL melanoma
[8] = test system: ACHN renal
[9] = test system: HOP-18 NSCLC
[10] = test system: DMS 114 small cell lung
[11] = test system: MOLT-4 leukemia
[12] = test system: XF 498 CNS
[13] = test system: LXFL 529 NSCLC
[14] = test system: RPMI-8226 leukemia
[15] = test system: RXF 393 renal
[16] = test system: HCT-116 colon
[17] = test system: UO-31 renal
[18] = test system: DLD-1 colon
[19] = test system: HCT-15 colon
[20] = test system: U251 CNS
[21] = test system: HOP-92 NSCLC
[22] = test system: HL-60(TB) leukemia
[23] = test system: SW-620 colon
[24] = test system: SK-OV-3 ovarian
[25] = test system: CCRF-CEM leukemia
[26] = test system: EKVX NSCLC
[27] = test system: A549 NSCLC
[28] = test system: TK-10 renal
[29] = test system: OVCAR-8 ovarian
[30] = test system: KM20L2 colon
[31] = test system: NCI-H460 lung
[32] = test system: SF-539 CNS
[33] = test system: SF-295 CNS
[34] = test system: SNB-19 CNS
[35] = test system: SN12C renal
[36] = test system: SF-268 CNS
[37] = test system: HT29 colon
[38] = test system: A498 renal
[39] = test system: IGROV1 ovarian
[40] = test system: K-562 leukemia
[41] = test system: COLO 205 colon
[42] = test system: SK-MEL-5 melanoma
[43] = test system: DMS 273 small cell lung
[44] = test system: UACC-62 melanoma
[45] = test system: NCI-H226 lung
[46] = test system: UACC-257 melanoma
[47] = test system: HOP-62 NSCLC
[48] = test system: NCI-H23 lung
[49] = test system: CAKI-1 renal
[50] = test system: SNB-75 CNS
[51] = test system: OVCAR-4 ovarian
[52] = test system: OVCAR-3 ovarian
[53] = test system: SR leukemia
[54] = test system: KM12 colon
[55] = test system: SNB-78 CNS
[56] = test system: OVCAR-5 ovarian
[57] = test system: MALME-3M melanoma
[58] = test system: HCC-2998 colon
[59] = test system: P388/ADR leukemia
[60] = test system: SN12K1 renal
[61] = test system: P388 leukemia

With Cn1nc(-c2ccccc2)c(C(=O)/C=C/c2ccc(F)cc2)c(N2CCOCC2)c1=O the TGI [1] was 36.4 µM, the TGI [2] was 48.8 µM and the TGI [3] was 31.5 µM. It also gave a TGI [4] of 86.6 µM, a TGI [5] of 75.4 µM and a TGI [6] of 36.2 µM. It also gave a TGI [7] of 39 µM, a TGI [8] of 42.1 µM and a TGI [9] of 37.3 µM. For the same molecule, the TGI [10] was 33.4 µM, the TGI [11] was 48.7 µM and the TGI [12] was 42.7 µM. It also gave a TGI [13] of 30.9 µM, a TGI [14] of 23.2 µM and a TGI [15] of 27.8 µM. The TGI [16] was 14.3 µM, the TGI [17] was 25.6 µM and the TGI [18] was over 100 µM. For the same molecule, the TGI [19] was over 100 µM, the TGI [20] was 31.4 µM and the TGI [21] was 36.4 µM. The TGI [22] was 40.5 µM, the TGI [23] was 47.1 µM and the TGI [24] was over 100 µM. For the same molecule, the TGI [25] was 49.2 µM, the TGI [26] was 75 µM and the TGI [27] was 54.3 µM. The TGI [28] was 97.5 µM, the TGI [29] was over 100 µM and the TGI [30] was 31.6 µM. It also gave a TGI [31] of 78.2 µM, a TGI [32] of 36.3 µM and a TGI [33] of 32.4 µM. The TGI [34] was 31.8 µM, the TGI [35] was over 100 µM and the TGI [36] was 38.2 µM. The TGI [37] was 30.2 µM, the TGI [38] was 32 µM and the TGI [39] was 39.3 µM. It also gave a TGI [40] of 53.2 µM, a TGI [41] of 34.6 µM and a TGI [42] of 29.3 µM. It also gave a TGI [43] of 53 µM and a TGI [44] of 43 µM.

O=C(O)CCSC(=O)Nc1ccccc1Cl showed a TGI [2] of over 100 µM, a TGI [45] of over 100 µM and a TGI [3] of over 100 µM. For the same molecule, the TGI [4] was over 100 µM, the TGI [46] was over 100 µM and the TGI [5] was over 100 µM. For the same molecule, the TGI [6] was over 100 µM, the TGI [7] was over 100 µM and the TGI [8] was over 100 µM. For the same molecule, the TGI [47] was over 100 µM, the TGI [9] was over 100 µM and the TGI [10] was over 100 µM. The TGI [11] was over 100 µM, the TGI [12] was over 100 µM and the TGI [13] was over 100 µM. It also gave a TGI [48] of over 100 µM, a TGI [49] of over 100 µM and a TGI [50] of over 100 µM. The TGI [14] was over 100 µM, the TGI [15] was over 100 µM and the TGI [51] was over 100 µM. The TGI [16] was over 100 µM, the TGI [17] was over 100 µM and the TGI [18] was over 100 µM. For the same molecule, the TGI [52] was over 100 µM, the TGI [19] was over 100 µM and the TGI [20] was over 100 µM. The TGI [21] was over 100 µM, the TGI [23] was over 100 µM and the TGI [24] was over 100 µM. The TGI [53] was over 100 µM, the TGI [25] was over 100 µM and the TGI [54] was over 100 µM. The TGI [26] was over 100 µM, the TGI [27] was over 100 µM and the TGI [28] was over 100 µM. It also gave a TGI [29] of over 100 µM, a TGI [30] of over 100 µM and a TGI [31] of over 100 µM. For the same molecule, the TGI [32] was over 100 µM, the TGI [55] was over 100 µM and the TGI [56] was over 100 µM. The TGI [33] was over 100 µM, the TGI [34] was over 100 µM and the TGI [35] was over 100 µM. It also gave a TGI [36] of over 100 µM, a TGI [57] of over 100 µM and a TGI [37] of over 100 µM. The TGI [38] was over 100 µM, the TGI [39] was over 100 µM and the TGI [40] was over 100 µM. It also gave a TGI [58] of over 100 µM, a TGI [41] of over 100 µM and a TGI [42] of over 100 µM. For the same molecule, the TGI [43] was over 100 µM and the TGI [44] was over 100 µM.

With CCC(C)C1NC(=O)CNC(=O)C2Cc3c([nH]c4cc(O)ccc34)S(=O)CC(NC(=O)CNC1=O)C(=O)NC(CC(=O)O)C(=O)N1CC(O)CC1C(=O)NC(C(C)C(O)CO)C(=O)N2 (stereo not given) the TGI [45] was 8.08 µM, the TGI [46] was 6.73 µM and the TGI [7] was 24.2 µM. It also gave a TGI [9] of over 88.9 µM, a TGI [10] of 3.78 µM and a TGI [59] of 18.4 µM. For the same molecule, the TGI [60] was over 100 µM, the TGI [12] was 5.88 µM and the TGI [48] was 5.81 µM. It also gave a TGI [18] of over 100 µM, a TGI [21] of 5.78 µM and a TGI [30] of over 100 µM. The TGI [55] was over 100 µM, the TGI [61] was 14.9 µM and the TGI [43] was 14.9 µM.
